A short description of this assay: Inhibition of P-glycoprotein-mediated rhodamine 123 absorption in guinea-pig ileum. Format: tissue-based. Conditions: Cavia porcellus.

Among the data in ChEMBL document CHEMBL1157451, “Effect of some P-glycoprotein modulators on Rhodamine-123 absorption in guinea-pig ileum” (Bioorg Med Chem Lett, 2008) are EC50 values, retold here.

SMILES strings stand for the structures.

On to `COc1cccc(CCc2ccccc2OCc2ccccn2)c1`, for which the EC50 amounted to 14.7 µM.
Consider `CC/C(=C(\c1ccccc1)c1ccc(OCCN(C)C)cc1)c1ccccc1` [TAMOXIFEN], for which the EC50 turned out to be 39.4 µM.
